Measurements reported in US20090257999A1, “Method of preventing contrast-induced nephropathy” (Inotek Pharmaceuticals Corporation, priority 2007, published 2009).

How the values were obtained:
Format in all cases: in vivo, rat
[1] = tested on: diabetic rats; test: CIN animal model, Example 1: fractional excretion of Na+ (FENa, tubular function); conditions: at 96 hours
Experimental: (§1) Male Wistar rats (150-200 g; Harlan Nossanr) were housed in a controlled environment and provided with standard rodent chow and water.
After 12 hours of fasting, the animals received a single 60 mg/kg intravenous (i.v.) injection of streptozotocin (Sigma, St. Louis, Mo.) in 10 mM sodium citrate buffer, pH 4.5 (see figure showing CIN model). Control non-diabetic animals were fasted and received citrate buffer alone. After 24 hours, animals with blood glucose levels greater than 250 mg/dl were considered diabetic. All experiments were performed 10 days following the induction of diabetes. The diabetic state was evaluated daily by determination of the blood glucose levels. […]
At the indicated time point blood samples were collected via the lateral tail vein into S1/3 tubes containing serum gel. […] All plasma samples were analyzed for biochemical parameters within 24 hours of collection. Plasma concentrations of urea and creatinine were measured as indicators of impaired glomerular function. Urine samples were collected at 96 hour after contrast agent administration and the volume of urine produced was recorded. Urine concentrations of Na^+ were measured and were used in conjunction with plasma Na^+ concentrations to calculate fractional excretion of Na^+ (FENa) using standard formulae, which was used as an indicator of tubular function. […]

[2] = tested on: diabetic rats; test: CIN model, Example 2: NAC and Metalloporphyrin A in diabetic rats; conditions: diabetic (STZ) rats + Iomeprol, NAC 3-100 mg/kg i.v., or NAC 10-100 mg/kg + Metalloporphyrin A 1 mg/kg i.v., at −30 min
Experimental: Male Wistar rats (150-200 g; Harlan Nossanr) were housed in a controlled environment and provided with standard rodent chow and water. Diabetes was induced after 2 hours of fasting. The animals received a single 60 mg/kg intravenous (i.v.) injection of streptozotocin (Sigma, St. Louis, Mo.) in 10 mM sodium citrate buffer, pH 4.5 (see figure). Control non-diabetic animals were fasted and received citrate buffer alone. After 24 hours, animals with blood glucose levels greater than 250 mg/dl were considered diabetic. The diabetic state was confirmed by evaluating the blood glucose levels. Ten days following the induction of diabetes rats were anesthetized with 90 mg/kg ketamine i.m. and 10 mg/kg xylazine i.m. and were treated with the contrast agent iomeprol (10 mL/kg injected via the lateral tail vein) or with 0.9% normal saline. The contrast agent used was the low osmolar non-ionic monomer iomeprol (Iomeron, 400 mgI mL-1; Bracco SpA, Milan, Italy) with an osmolality of 726±34 mosmol/kg H2O.
Blood samples were collected via the lateral tail vein into S1/3 tubes containing serum gel at 0 and 24 hours. The samples were centrifuged (6000 r.p.m. for 3 min) to separate plasma. All plasma samples were analyzed for biochemical parameters within 24 hours after collection. Plasma and urine concentrations of creatinine were measured as indicators of impaired glomerular function. Creatinine clearance was calculated using the following formula (=UV/P), where U refers to Creatinine concentration in urine, V to urine volume/min and P to serum creatinine.
Protein concentration in urine was determined by Bio-Rad DC Protein Assay (BioRad, Richmond Calif.). The Bio-Rad DC protein assay is a colorimetric assay for protein concentration.

[3] = tested on: Neutrophil gelatinase-associated lipocalin (NGAL); test: Plasma NGAL by ELISA, Example 1; conditions: diabetic rats + i.v. Iomeprol; Metalloporphyrin A 1 mg/kg or NAC 10 mg/kg; versus drug placebo; readings 0-96 hours
Experimental: (§2) Experimental model for assessing the effects of Metalloporphyrin A on CIN: Diabetic (n=8) for group #'s 1-9 or wild-type rats (n=10) for group #'s 10 and 11 were treated with drug 60 min prior to contrast agent administration. At the “0” time point, Iomeprol was administered with ensuing drug intervention dosing every 12 hours for Metalloporphyrin A from 24-84 hours or every 24 hours for NAC from 24-72 hours. At the 96 hour time point, kidneys were harvested for histopathology, MPO and MDA measurements. From 0-96 hours, plasma samples from all animals per group were screened for urea, creatinine, fractional excretion of Na^+ and NGAL.
Neutrophil gelatinase-associated lipocalin (NGAL) has recently been proposed as a real-time indicator of active kidney damage by Mori, K., Nakao, K., Kidney International (2007) 71, 967-970. The plasma from 5 different diabetic animals per experimental group were taken for measurement of NGAL by ELISA as outlined below:
1) For diabetic rats without contrast agent, non-diluted plasma was used. For diabetic rats with contrast agent, plasma samples were diluted 1:400 with saline prior to use.
100 microliter diluted/non-diluted plasma samples or recombinant NGAL protein (25-1000 ng/ml) were added to pre-coated ELISA plates containing a monoclonal antibody raised against NGAL. […]
5) Plates were read at an absorbance of 450 nm.

[4] = tested on: diabetic rats; test: CIN animal model, Example 1: plasma urea and creatinine (glomerular dysfunction)
Experimental: as §1
After 12 hours of fasting, the animals received a single 60 mg/kg intravenous (i.v.) injection of streptozotocin (Sigma, St. Louis, Mo.) in 10 mM sodium citrate buffer, pH 4.5 (see figure showing CIN model). Control non-diabetic animals were fasted and received citrate buffer alone. After 24 hours, animals with blood glucose levels greater than 250 mg/dl were considered diabetic. All experiments were performed 10 days following the induction of diabetes. The diabetic state was evaluated daily by determination of the blood glucose levels. Upon the induction of the diabetic state the animals were presenting with a major risk factor pre-disposing the animals to CIN after the administration of contrast media.
Ten days following the induction of diabetes the rats were anesthetized with 90 mg/kg ketamine i.m. and 10 mg/kg xylazine i.m. and were treated with the contrast agent iomeprol (10 mL/kg injected via the lateral tail vein) or with 0.9% normal saline. The contrast agent used was the low osmolar non-ionic monomer iomeprol (Iomeron, 400 mgI mL-1; Bracco SpA, Milan, Italy) with an osmolality of 726±34 mosmol/kg H2O. Upon completion of surgical procedures, the animals were randomly allocated to eleven different experimental groups as tabulated below:
as §2
At the indicated time point blood samples were collected via the lateral tail vein into S1/3 tubes containing serum gel. The samples were centrifuged (6000 r.p.m. for 3 min) to separate plasma. All plasma samples were analyzed for biochemical parameters within 24 hours of collection. Plasma concentrations of urea and creatinine were measured as indicators of impaired glomerular function. Urine samples were collected at 96 hour after contrast agent administration and the volume of urine produced was recorded. Urine concentrations of Na^+ were measured and were used in conjunction with plasma Na^+ concentrations to calculate fractional excretion of Na^+ (FENa) using standard formulae, which was used as an indicator of tubular function.

[5] = tested on: Myeloperoxidase (MPO) activity in kidneys; test: Kidney myeloperoxidase (MPO) activity, Example 1; conditions: at 96 hours
Experimental: as §2
Myeloperoxidase (MPO) activity in kidneys was used as an indicator of polymorphonuclear (PMN) cell infiltration activation using a method previously described (Hillegass et al, J. Pharmacol. Methods. 24(4):285-95,1990).
At the end of the experiments, kidney tissue was weighed and homogenized in a solution containing 0.5% (wt/vol) hexadecyltrimethylammonium bromide dissolved in 10 mmol/L potassium phosphate buffer (pH 7.4) and centrifuged for 30 minutes at 20,000 g at 4° C. […] The rate of change in absorbance was measured spectrophotometrically at 650 nm. MPO activity was defined as the quantity of enzyme required to degrade 1 mmol of H2O2 at 37° C. and was expressed in U/g wet tissue.

[6] = diabetic rats + i.v. Iomeprol, Metalloporphyrin A 30-1000 μg/kg or NAC 10 mg/kg i.p.
[7] = diabetic rats + i.v. saline (no contrast agent), Metalloporphyrin A 1000 μg/kg or NAC 10 mg/kg i.p.
[8] = diabetic rats + i.v. Iomeprol 10 ml/kg, Metalloporphyrin A 1000 μg/kg or NAC 10 mg/kg i.p., at 48, 72 and 96 hours
[9] = diabetic rats + i.v. saline (no contrast agent), NAC 10 mg/kg i.p., at 72 and 96 hours

With `CC(=O)N[C@@H](CS)C(=O)O` [NAC, N-acetylcysteine] the “fractional excretion of sodium (FENa)” value [1, 6] was “significant reductions”, the “fractional excretion of sodium (FENa)” value [1, 7] was “significantly reduced the increase” and the plasma creatinine ([2]; 24 h) was “significant reductions”. For the same molecule, the “total protein concentration in the urine” value ([2]; 24 hours) was “significant reductions”, the “urine αGST concentration” value ([2]; 24 hours) was “significant reduction” and the “plasma NGAL levels” value [3] was “significantly lower”. For the same molecule, the plasma creatinine concentration [4, 8] was “reductions”, the plasma urea concentration [4, 8] was “reductions” and the plasma creatinine concentration [4, 9] was “significantly reduced the increase”. The plasma urea concentration [4, 9] was “significantly reduced the increase”, the “kidney MPO activity” value [5, 6] was “significant reductions” and the “kidney MPO activity” value [5, 7] was “significantly reduced the increase”.
